The values that follow come from BindingDB's records for PubMed 7473144 (Gliatech, 1995).

For the assay, the target named is Hrh3 protein (Rattus norvegicus, UniProt Q5PPG3).
Hrh3 protein, sequence (Q5PPG3 whole entry): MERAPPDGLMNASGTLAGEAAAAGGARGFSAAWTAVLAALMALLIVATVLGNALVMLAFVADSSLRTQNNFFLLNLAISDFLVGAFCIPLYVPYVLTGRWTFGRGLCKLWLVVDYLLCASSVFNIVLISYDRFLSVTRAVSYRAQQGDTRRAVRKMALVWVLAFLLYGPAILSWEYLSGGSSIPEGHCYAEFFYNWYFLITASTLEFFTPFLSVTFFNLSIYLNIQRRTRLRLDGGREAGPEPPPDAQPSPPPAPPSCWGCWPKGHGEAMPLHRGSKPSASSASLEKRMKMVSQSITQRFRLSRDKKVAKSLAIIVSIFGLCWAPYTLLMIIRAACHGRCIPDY

`S=C(NC1CCCCC1)N1CCC(c2cnc[nH]2)CC1` displayed a Ki of 1.8 nM.

Usually Ki stands for a dissociation constant, usually derived from enzyme kinetics or from competition with a known ligand. High values mean a looser hold on the target, low ones a stronger hold on the target.
